Reference: patent US12606543B2, “Indole derivatives as serotonergic agents useful for the treatment of disorders related thereto” (priority 2023, dated 2026)

Assays:
[1] = Liver microsomes stability, mouse; format: in vitro ADME; settings: for half-life at 2 μM / microsomal CLint at 2 μM / CLint scaled at 2 μM: male; for CLint scaled at 2 μM: read-out: Scaled-up CLint
Procedure: (§1) The objective of this study was to estimate in vitro metabolic stability of exemplary compounds of Formula (I) or a pharmaceutically acceptable salt, solvate, and/or prodrug thereof in pooled human, male rat, and male mouse liver microsomes. The concentrations of compounds in reaction systems were evaluated by LC-MS/MS for estimating the stability in pooled human, male rat, and male mouse liver microsomes. The in vitro intrinsic clearances of test compounds were determined as well.
(§2) A master solution in the “Incubation Plate” containing phosphate buffer, ultra-pure H2O, MgCl2 solution and liver microsomes was made according to Table 33. The mixture was pre-warmed at 37° C. water bath for 5 minutes.
(§3) 40 μL of 10 mM nicotinamide adenine dinucleotide phosphate (NADPH) solution was added to each well. The final concentration of NADPH was 1 mM. The negative control samples were prepared by replacing NADPH with 40 μL of ultra-pure H2O. Samples were prepared in duplicate. Negative controls were prepared in singlet.
(§4) The reaction was started with the addition of 4 μL of 200 μM exemplary test compounds of the disclosure or control compounds to each master solution to get the final concentration of 2 μM. This study was performed in duplicate.
(§5) Aliquots of 50 μL were taken from the reaction solution at 0, 15, 30, 45, and 60 minutes. The reaction solutions were stopped by the addition of 4 volumes of cold methanol with IS (100 nM alprazolam, 200 nM imipramine, 200 nM labetalol, and 2 μM ketoprofen). Samples were centrifuged at 3,220 g for 40 minutes. Aliquot of 90 μL of the supernatant was mixed with 90 μL of ultra-pure H2O and then was used for LC-MS/MS analysis.
(§6) LC/MS analysis was performed for all samples from this study using a Shimadzu liquid chromatograph separation system equipped with degasser DGU-20A5R; solvent delivery unit LC-30AD; system controller SIL-30AC; column oven CTO-30A; CTC Analytics HTC PAL System. Mass spectrometric analysis was performed using a Triple Quad™ 5500 instrument.
(§7) All calculations were carried out using Microsoft Excel. Peak area ratios of test compound to internal standard (listed in the below table) were determined from extracted ion chromatograms.
(§8) All calculations were carried out using Microsoft Excel. Peak areas were determined from extracted ion chromatograms. The slope value, k, was determined by linear regression of the natural logarithm of the remaining percentage of the parent drug vs. incubation time curve.
(§9) The in vitro half-life (in vitro t1/2) was determined from the slope value:
(§10) Conversion of the in vitro t1/2 (min) into the in vitro intrinsic clearance (in vitro CLint, in μL/min/mg proteins) was done using the following equation (mean of duplicate determinations): […]
as §1, with “solvate” for “solvate,”, “rat” for “rat,”
(§11) A master solution in the “Incubation Plate” containing phosphate buffer, ultra-pure H2O, MgCl2 solution and liver microsomes was made according to Table 67. The mixture was pre-warmed at 37° C. water bath for 5 minutes.
(§12) 40 μL of 10 mM NADPH solution was added to each well. The final concentration of NADPH was 1 mM. The negative control samples were prepared by replacing NADPH with 40 μL of ultra-pure H2O. Samples were prepared in duplicate. Negative controls were prepared in singlet
(§13) Aliquots of 50 μL were taken from the reaction solution at 0, 15, 30, 45 and 60 minutes. The reaction solutions were stopped by the addition of 4 volumes of cold methanol with IS (100 nM alprazolam, 200 nM imipramine, 200 nM labetalol and 2 μM ketoprofen). […]

[2] = Liver microsomes stability, rat; format: in vitro ADME; settings: for half-life at 2 μM / microsomal CLint at 2 μM / CLint scaled at 2 μM: male; for CLint scaled at 2 μM: read-out: Scaled-up CLint
Procedure: as §1, §2, §3, §4, §5, §6, §7, §8, §9, §10
as §1, with “solvate” for “solvate,”, “rat” for “rat,”
as §11, §12, §13

[3] = mouse liver microsomes, With Cofactors, 0 min
[4] = mouse liver microsomes, With Cofactors, 30 min
[5] = mouse liver microsomes, With Cofactors, 60 min
[6] = mouse liver microsomes, Without Cofactors, 0 min
[7] = mouse liver microsomes, Without Cofactors, 30 min
[8] = mouse liver microsomes, Without Cofactors, 60 min
[9] = Rat liver microsomes, 2 μM, 0.5 mg/mL, NADPH
[10] = pooled liver microsomes, mouse liver microsomes, 2 μM compound, 0.5 mg/mL microsomes
[11] = rat liver microsomes, 2 μM compound, 0.5 mg/mL microsomes
[12] = rat liver microsomes, With Cofactors, 0 min
[13] = rat liver microsomes, With Cofactors, 30 min
[14] = rat liver microsomes, With Cofactors, 60 min
[15] = rat liver microsomes, Without Cofactors, 0 min
[16] = rat liver microsomes, Without Cofactors, 30 min
[17] = rat liver microsomes, Without Cofactors, 60 min

| SMILES | CLint scaled at 2 μM ([1]; mouse liver microsomes) [mL/min/kg] | half-life at 2 μM [1, 10] [min] | microsomal CLint at 2 μM [1, 10] [µL/min/mg] | Predicted hepatic CL ([1]; mouse liver microsomes) [mL/min/kg] | Remaining Percentage [1, 3] [%] | Remaining Percentage [1, 4] [%] | Remaining Percentage [1, 5] [%] | Remaining Percentage [1, 6] [%] | Remaining Percentage [1, 7] [%] | Remaining Percentage [1, 8] [%] | half-life at 2 μM [2, 11] [min] | microsomal CLint at 2 μM [2, 11] [µL/min/mg] | CLint scaled at 2 μM ([2]; rat liver microsomes) [mL/min/kg] | Predicted hepatic CL ([2]; rat liver microsomes) [mL/min/kg] | Remaining Percentage [2, 12] [%] | Remaining Percentage [2, 13] [%] | Remaining Percentage [2, 14] [%] | Remaining Percentage [2, 15] [%] | Remaining Percentage [2, 16] [%] | Remaining Percentage [2, 17] [%] | also measured |
| --- | --- | --- | --- | --- | --- | --- | --- | --- | --- | --- | --- | --- | --- | --- | --- | --- | --- | --- | --- | --- | --- |
| CSc1ccc2[nH]cc(C[C@H]3CCCN3C)c2c1 [(R) I-1, (R)-3-((1-Methylpyrrolidin-2-yl)methyl)-5-(methylthio)-1H-indole] | > 1340 | – | – | – | – | – | – | – | – | – | – | – | – | – | – | – | – | – | – | – | Predicted hepatic CL ([1]; Mouse liver microsomes): >84.35 mL/min/kg; half-life at 2 μM ([1]; Mouse liver microsomes, 2 μM, 0.5 mg/mL, NADPH, <4.51 if % remaining at 30 min below 1%): < 4.51 min; microsomal CLint at 2 μM ([1]; Mouse liver microsomes, 2 μM, 0.5 mg/mL, NADPH, >307.01 if % remaining at 30 min below 1%): > 307 µL/min/mg; Remaining Percentage (%) 0 min [1, 3]: 100.00%; Remaining Percentage (%) 30 min [1, 4]: 0.15%; Remaining Percentage (%) 60 min [1, 5]: 0.23%; Remaining Percentage (%) 0 min [1, 6]: 100.00%; Remaining Percentage (%) 30 min [1, 7]: 98.55%; Remaining Percentage (%) 60 min [1, 8]: 103.02%; Predicted hepatic CL ([2]; Rat liver microsomes): 44.80 mL/min/kg; Remaining Percentage (%) 0 min ([2]; Rat liver microsomes, With Cofactors, 0 min): 100.00%; Remaining Percentage (%) 30 min ([2]; Rat liver microsomes, With Cofactors, 30 min): 13.67%; Remaining Percentage (%) 60 min ([2]; Rat liver microsomes, With Cofactors, 60 min): 0.44%; Remaining Percentage (%) 0 min ([2]; Rat liver microsomes, Without Cofactors, 0 min): 100.00%; Remaining Percentage (%) 30 min ([2]; Rat liver microsomes, Without Cofactors, 30 min): 93.44%; Remaining Percentage (%) 60 min ([2]; Rat liver microsomes, Without Cofactors, 60 min): 95.17%; half-life at 2 μM [2, 9]: 10.4 min; microsomal CLint at 2 μM [2, 9]: 133 µL/min/mg; CLint scaled at 2 μM ([2]; Rat liver microsomes): 238 mL/min/kg |
| [2H]C([2H])(c1c[nH]c2ccc(OCCCCCN3C(=O)C4CCCCC4C3=O)cc12)[C@H]1CCCN1C([2H])([2H])[2H] (mixture of isomers) [Rac (R) I-248] | > 1340 | < 4.51 | > 307 | >84.35 | 100.00 | 0.15 | 0.19 | 100.00 | 99.54 | 95.85 | < 4.51 | > 307 | > 550 | >50.17 | 100.00 | 0.95 | 0.19 | 100.00 | 94.04 | 94.04 | – |
| COCCN1CCC[C@@H]1Cc1c[nH]c2ccc(OC)cc12 [(R) I-98, (R)-5-Methoxy-3-((1-(2-methoxyethyl)pyrrolidin-2-yl)methyl)-1H-indole] | 421 | 14.4 | 96.3 | 74.16 | – | 100.00 | 14.54 | – | 100.00 | 100.99 | 10 | 138 | 248 | 45.13 | – | 100.00 | 14.43 | – | 100.00 | 103.23 | – |
| [2H]C([2H])(c1c[nH]c2ccc(OCCCCCN3C(=O)c4ccccc4C3=O)cc12)[C@H]1CCCN1C([2H])([2H])[2H] [(R) I-245, (R)-2-(5-((3-((1-(Methyl-d3)pyrrolidin-2-yl)methyl-d2)-1H-indol-5-yl)oxy)pentyl)isoindoline-1,3-dione] | 1180 | 5.12 | 271 | 83.65 | 100.00 | 1.72 | 0.25 | 100.00 | 100.00 | 93.17 | < 4.51 | > 307 | > 550 | >50.17 | 100.00 | 0.62 | 0.00 | 100.00 | 95.83 | 94.10 | – |
| [2H]C([2H])(c1c[nH]c2ccc(OCCCCN3C(=O)c4ccccc4C3=O)cc12)[C@H]1CCCN1C([2H])([2H])[2H] [(R) I-244, (R)-2-(4-((3-((1-(Methyl-d3)pyrrolidin-2-yl)methyl-d2)-1H-indol-5-yl)oxy)butyl)isoindoline-1,3-dione] | > 1340 | < 4.51 | > 307 | >84.35 | 100.00 | 0.00 | 0.00 | 100.00 | 98.38 | 86.59 | 6.89 | 201 | 360 | 47.87 | 100.00 | 4.90 | 0.57 | 100.00 | 94.87 | 87.40 | – |
